Assay results: PMC9501832 (Pharmaceutics, 2022)
Where two headings read alike, the source gives them in different places.

What was measured:
[1] = molecular target: phosphodiesterase enzyme type 5 (PDE5) (Homo sapiens, UniProt O76074); experiment: In vitro enzyme assay (Transcreener fluorescence polarization); type: biochemical; settings: 10-dose, 3-fold serial dilution starting at 50 uM
Method: Tested compounds (series B, D, E and G) were tested against phosphodiesterase enzyme type 5 (PDE5) in order to investigate their inhibitory activities. The in vitro enzyme assay was conducted using Transcreener Fluorescence polarization assay to detect the reaction product GMP. The compounds were suspended in DMSO to make 10 mM stock solutions. The procedure was conducted using the following buffer system; 10 mM Tris, pH 7.5, 5 mM MgCl2, 0.01% Brij 35, 1 mM DTT and 1% DMSO. […] The tested samples were added into the enzyme by Acoustic Technology. The substrate was added and incubated for 1 h. Fluorescence polarization (FP) was measured after 90 min incubation at rt and mP was calculated. Data were analyzed based on the GMP standard curve.

[2] = tested on: PDE5; settings: training set, supplement reference list, read-out: PDE5 IC50 Experimental, cited from earlier work

Compound | melting point | IC50 [1] | further results
O=C(Cc1nc2ncccc2[nH]c1=O)NNC(=O)Nc1ccccc1 [Compound 5a] | 218 to 220 °C |  | 
O=C(Cc1nc2ncccc2[nH]c1=O)NNC(=O)Nc1ccc(Cl)cc1 [Compound 5b] | 230 to 232 °C |  | 
O=C(Cc1nc2ncccc2[nH]c1=O)NNC(=S)Nc1ccccc1 [Compound 5c] | 234 to 236 °C |  | 
O=C(Cc1nc2ncccc2[nH]c1=O)N/N=C/c1ccccc1 [Compound 6a] | 228 to 230 °C | 0.0591 µM | 
O=C(Cc1nc2ncccc2[nH]c1=O)N/N=C/c1ccc([N+](=O)[O-])cc1 [Compound 6b] |  | 0.0679 µM | 
COc1ccc(/C=N/NC(=O)Cc2nc3ncccc3[nH]c2=O)cc1 [Compound 6c] | 222 to 224 °C | 0.047 µM | 
O=C(Cc1nc2ncccc2[nH]c1=O)NN1C(=O)CCC1=O [Compound 7a] | 210 to 212 °C |  | 
O=C(Cc1nc2ncccc2[nH]c1=O)NN1C(=O)C=CC1=O [Compound 7b] | 213 to 215 °C |  | 
O=C(Cc1nc2ncccc2[nH]c1=O)NN1C(=O)c2ccccc2C1=O [Compound 7c] | 211 to 213 °C |  | 
CCN(CC)Cc1nc2ncccc2[nH]c1=O [Compound 8a] | 262 to 263 °C | 0.0938 µM | 
O=c1[nH]c2cccnc2nc1CN1CCCCC1 [Compound 8b] | 277 to 279 °C | 0.0446 µM | 
CCCc1nn(C)c2c(=O)[nH]c(-c3cc(S(=O)(=O)N4CCN(C)CC4)ccc3OCC)nc12 [t1, Sildenafil] |  |  | IC50 ([2]; ref [1]): 0.0022 µM
CN1CC(=O)N2[C@H](c3ccc4c(c3)OCO4)c3[nH]c4ccccc4c3C[C@@H]2C1=O [t3, Tadalafil] |  |  | IC50 ([2]; ref [1]): 0.0012 µM
COc1ccc(CNC(=O)c2cc([N+](=O)[O-])ccc2NC(C)CO)cc1OC (centres unmarked) [t5, Benzamidenafil] |  |  | IC50 ([2]; ref [3]): 0.0011 µM
COc1ccc(CN=c2[nH]c(N3CCC[C@H]3CO)ncc2C(=O)NCc2ncccn2)cc1Cl [t6, Avanafil] |  |  | IC50 ([2]; ref [5]): 0.0052 µM
CCCc1nn(C)c2c(=O)[nH]c(-c3cc(S(=O)(=O)N4CCN(CC)CC4)ccc3OCC)nc12 [t7, Homosildenafil] |  |  | IC50 ([2]; ref [5]): 0.0038 µM
CCCc1nn(C)c2c(=O)[nH]c(-c3cc(S(=O)(=O)N4CCN(CCO)CC4)ccc3OCC)nc12 [t8, Hydroxyhomosildenafil] |  |  | IC50 ([2]; ref [5]): 0.0034 µM
CCCc1nn(C)c2c(=O)[nH]c(-c3cc(C(=O)CN4CCN(CC)CC4)ccc3OCC)nc12 [t9, Acetildenafil] |  |  | IC50 ([2]; ref [5]): 0.0076 µM
CCCc1nn(C)c2c(=O)[nH]c(-c3cc(C(=O)CN4CCN(CCO)CC4)ccc3OCC)nc12 [t10, Hydroxyacetildenafil] |  |  | IC50 ([2]; ref [5]): 0.0584 µM
CCCc1nn(C)c2c(=S)nc(-c3cc(S(=O)(=O)N4CCN(C)CC4)ccc3OCC)[nH]c12 [t11, Thiosildenafil] |  |  | IC50 ([2]; ref [5]): 0.0006 µM
CCCOc1ccc(S(=O)(=O)NCCC2CCCN2C)cc1-c1nc2c(CCC)nn(C)c2c(=O)[nH]1 (centres unmarked) [t13, Udenafil] |  |  | IC50 ([2]; ref [6]): 0.0083 µM
CCCc1nn(C)c2c(=S)nc(-c3cc(S(=O)(=O)N4C[C@@H](C)N[C@@H](C)C4)ccc3OCC)[nH]c12 [t15, Thioaildenafil] |  |  | IC50 ([2]; ref [3]): 0.0006 µM
CCCc1nn(C)c2c(=O)[nH]c(-c3cc([N+](=O)[O-])ccc3OCC)nc12 [t16, Nitrodenafil] |  |  | IC50 ([2]; ref [3]): 0.0674 µM
CCCc1nn(C)c2c(=O)[nH]c(-c3cc(C(=O)CN4C[C@@H](C)N[C@@H](C)C4)ccc3OCC)nc12 [t17, Dimethylacetildenafil] |  |  | IC50 ([2]; ref [3]): 0.0512 µM
NN1CC(=O)N2[C@H](c3ccc4c(c3)OCO4)c3[nH]c4ccccc4c3C[C@@H]2C1=O [t116, Aminotadalafil] |  |  | IC50 ([2]; ref [5]): 0.0042 µM
Carbodenafil [t12] |  |  | IC50 ([2]; ref [6]): 0.0052 µM

The next lines start with results.

melting point | IC50 [1] | Compound | further results
234 to 235 °C | 0.089 µM | O=c1[nH]c2cccnc2nc1CN1CCOCC1 [Compound 8c] | 
248 to 250 °C | 0.101 µM | O=c1[nH]c2cccnc2nc1CNc1ccccc1 [Compound 8d] | 
258 to 260 °C | 0.021 µM | Cc1cccc(NCc2nc3ncccc3[nH]c2=O)c1 [Compound 8f] | 
284 to 286 °C |  | Cc1ccc(NCc2nc3ncccc3[nH]c2=O)cc1 [Compound 8g] | 
> 300 °C |  | O=c1[nH]c2cccnc2nc1CNc1ccc(Cl)cc1 [Compound 8h] | 
> 300 °C | 0.137 µM | O=c1[nH]c2cccnc2nc1CNc1ccc(Br)cc1 [Compound 8i] | 
292 to 293 °C |  | O=c1[nH]c2cccnc2nc1CN(c1ccccc1)c1ccccc1 [Compound 8j] | 
234 to 236 °C | 0.0322 µM | O=c1[nH]c2cccnc2nc1CN/N=C/c1ccccc1 [Compound 9a] | 
237 to 239 °C | 0.0304 µM | O=c1[nH]c2cccnc2nc1CN/N=C/c1ccc(Cl)cc1 [Compound 9b] | 
238 to 240 °C | 0.0414 µM | O=c1[nH]c2cccnc2nc1CN/N=C/c1ccc([N+](=O)[O-])cc1 [Compound 9c] | 
256 to 258 °C | 0.0323 µM | COc1ccc(/C=N/NCc2nc3ncccc3[nH]c2=O)cc1 [Compound 9d] | 
230 to 233 °C | 0.0294 µM | C/C(=N\NCc1nc2ncccc2[nH]c1=O)c1ccccc1 [Compound 9e] | 
220 to 222 °C |  | O=c1[nH]c2cccnc2nc1Cc1n[nH]c(=O)n1-c1ccccc1 [Compound 10a] | 
219 to 222 °C |  | O=c1[nH]c2cccnc2nc1Cc1n[nH]c(=S)n1-c1ccccc1 [Compound 10c] | 
234 to 236 °C | 0.0263 µM | CC(=O)N1N=C(Cc2nc3ncccc3[nH]c2=O)OC1c1ccccc1 (centres unmarked) [Compound 11a] | 
240 to 242 °C | 0.0181 µM | CC(=O)N1N=C(Cc2nc3ncccc3[nH]c2=O)OC1c1ccc([N+](=O)[O-])cc1 (centres unmarked) [Compound 11b] | 
235 to 237 °C | 0.031 µM | COc1ccc(C2OC(Cc3nc4ncccc4[nH]c3=O)=NN2C(C)=O)cc1 (centres unmarked) [Compound 11c] | 
219 to 221 °C |  | O=C1Nc2cccnc2N2C1=CNN=C2c1ccccc1 [Compound 12a] | 
222 to 225 °C |  | O=C1Nc2cccnc2N2C1=CNN=C2c1ccc(Cl)cc1 [Compound 12b] | 
222 to 224 °C |  | O=C1Nc2cccnc2N2C1=CNN=C2c1ccc([N+](=O)[O-])cc1 [Compound 12c] | 
229 to 231 °C |  | COc1ccc(C2=NNC=C3C(=O)Nc4cccnc4N32)cc1 [Compound 12d] | 
